Where “and” joins values, the source holds several entries; their conditions need not be identical. Equal entries are not always repeated. Where two headings read alike, the source gives them in different places.
How the values were obtained:
[1] = In vivo brain tissue distribution test after oral administration; conditions: mouse; for Kp / Cmax / Tmax / AUC(0-inf) / AUC(0-t) / MRT inf / half-life: Hsd:ICR(CD-1R); for Kp: brain/plasma, po, 25 mg/kg, PO; for AUC(0-inf): read-out: AUCinf, Mean; for AUC(0-t): read-out: AUClast, Mean; for MRT inf: read-out: MRTinf, Mean; for half-life: read-out: t1/2, Mean (converted)
Description: • Test drug: Compound 11 • Excipient: 20% hydroxypropyl-β-cyclodextrin aqueous solution to which 1% DMSO was added 2.2. Experimental system • Mouse, Hsd:ICR(CD-1R), SPF […] (7 weeks old at the time of administration)
After obtaining the mouse, the mouse was quarantined and acclimatized for 2 weeks, and used in the experiment. An administration dose was 25 mg/kg. A dosage for each individual was calculated based on the weight after fasting for 15 hours (on the day of administration), and the drug was orally administered once using a disposable syringe (1 mL) with a zonde for oral administration attached.
After respiratory anesthesia, blood was collected by heart blood collection with a 1 mL syringe, placed in a K2-EDTA-treated tube, and centrifuged at 8,000 RPM at 4° C. for 20 minutes, and plasma was collected from a supernatant. Heat perfusion was performed on animals after blood collection, a brain tissue was harvested, and olfactory bulb, cerebellum, pones, and medulla oblongata were removed from the harvested brain tissue. The collected plasma and brain tissue were frozen and stored at −80° C. until analysis.
In order to secure a sufficient amount of analysis sample, a mixed (pulled) sample of brain tissue and blood secured from two individuals was used (securing three repetitive samples from 6 animals in one collection). Blood plasma and brain tissue were collected from a mouse of the same week of age to which the compound was not administered, and used as a blank blood plasma and a blank tissue in the material concentration analysis.
190 μL of acetonitrile was added to 10 μL of a blood plasma sample including 200 ng/mL of the internal standard material and vortexed at 2,500 RPM for 60 seconds. Thereafter, centrifugation was performed at 12,000 RPM for 5 minutes, and 50 μL of a supernatant was taken and mixed with 50 μL of acetonitrile. 2 μL thereof was injected into LC-MS/MS.
The brain tissue was weighed, third distilled water equivalent to 4 times (w/v=¼) the weight was added, and homogenization was performed using a homogenizer. 10 μL of the homogenized tissue mixed solution was taken, 190 μL of acetonitrile including 50 ng/mL of the internal standard material was added, and vortexing was performed at 2,500 RPM for 60 seconds. Thereafter, centrifugation was performed at 12,000 RPM for 10 minutes, and 2 μL of a supernatant was taken and injected into LC-MS/MS.
PK parameter was calculated with a Non-compartmental analysis model using a PKSolver2.0 software.

SREBP = assay: Cell-based assay system using a 6xSRE reporter vector (copGFP intensity) in HOG-GSC-6xSRE-copGFP_HIGH cells; set-up: dose or concentration left out as unconfirmed; conditions: copGFP intensity normalized to DMSO control = 1, 72 hours
From the text: First, as shown in (a) of FIG. 1, SRE(5′-ATCACCCCAC-3′) 6 copies which are DNA seCuences to which a transcription factor, SREBP active form bonds were inserted into a minimal CMV promoter 5′ front end of a pGreenfire-Lenti-reporter vector to produce a 6xSRE reporter vector. The 6xSRE reporter vector is a vector system in which a minimal CMV promoter is activated only when SREBP in an activated form bonds to 6xSRE and copGFP is expressed, and after the vector was introduced to HOG-GSC which is a brain tumor stem cell, separation into a GFP high cell and a GFP low cell through FACS sorting was performed. Each of SREBP1a and SREBP1c in an active form was overexpressed in separated GFP-low cells (b of FIG. 1), and it was measured therefrom whether the expression amount of GFP was increased. As a result, it was confirmed that the overexpression of SREBP1a and SREBP1c active forms increased GFP expression by 43.30% and 93.49%, in separated GFP-low cells (c of FIG. 1). The separated GFP-high cells were treated with each of fatostatin and FGH10019 known to inhibit activity of DMSO and SREBP which was a control group to measure a change in the expression amount of GFP, and, as a result, it was confirmed that when treated with known materials, fatostatin and FGH10019, the expression of GFP was inhibited by up to 50% (d of FIG. 1).
HOG-GSC-6xSRE-copGFP_HIGH cells were dispensed into a 96-well plate (Corning) at 5000/well, each well was treated […], and then all wells were photographed every 3 hours for 72 hours in an incubator (ThermoFisher) at […], 5% CO2, using real-time cell imaging equipment (Incucyte) to photograph changes in copGFP intensity.

[2] = system: HOG-GSC brain tumor stem cell line; assay: In vivo efficacy evaluation, HOG-GSC orthotopic xenograft model; set-up: species or system BALB/c nude mouse; conditions: 25 mg/kg/day oral, day 16 after tumor transplantation
From the text: First, HOG-GSC which is a brain tumor stem cell line was transplanted to a caudate putamen in the brain of a BALB/c nude mouse to establish am orthotropic xenograft model. After transplanting the brain tumor stem cells, the implementation compound of the present invention was orally administered from day 7 for 3 weeks with a schedule of 5 days of administration and 2 days of off medication, and only excipient was administration in the same manner to the control group. Thereafter, based on clinical findings resulting from the growth of the brain tumor in the animals, the survival period of the mouse was investigated, thereby confirming that the death of the animal due to a tumor was delayed by the administration of the implementation compound of the present invention. In addition, both the control mouse and the mouse to which the implementation compound of the present invention was administered were euthanized on day 16 after transplanting the tumor, their brain tissues were harvested, and the sizes of the brain tumor on the same date were compared.

CC(C)(C)c1ccc(-c2cc(/C=C3\SC(=O)NC3=O)ccn2)cc1 [Compound 11, (Z)-5-((2-(4-(tert-butyl)phenyl)pyridin-4-yl)methylene)thiazolidine-2,4-dione] gave a Kp ([1]; read-out: Brain-to-plasma ratio by AUC (brain/plasma)) of 0.543, a Kp ([1]; read-out: Brain-to-plasma ratio by concentration (brain/plasma), Average) of 0.47 and a Kp ([1]; read-out: Brain-to-plasma ratio by concentration (brain/plasma), Max) of 0.777. For the same molecule, the Cmax ([1]; Brain (25 mg/kg, PO)) was 12600 ng/mL, the Tmax ([1]; Brain (25 mg/kg, PO)) was 3 h and the AUC(0-inf) ([1]; Brain (25 mg/kg, PO)) was 96.8 µg·h/mL. It also gave an AUC(0-t) ([1]; Brain (25 mg/kg, PO)) of 96 µg·h/mL, an MRT inf ([1]; Brain (25 mg/kg, PO)) of 6 h and a half-life ([1]; Brain (25 mg/kg, PO)) of 2.83 h. For the same molecule, the Cmax ([1]; Plasma (25 mg/kg, PO)) was 20400 ng/mL, the Tmax ([1]; Plasma (25 mg/kg, PO)) was 1.33 h and the AUC(0-inf) ([1]; Plasma (25 mg/kg, PO)) was 180 µg·h/mL. The AUC(0-t) ([1]; Plasma (25 mg/kg, PO)) was 177 µg·h/mL, the MRT inf ([1]; Plasma (25 mg/kg, PO)) was 6.95 h and the half-life ([1]; Plasma (25 mg/kg, PO)) was 3.08 h. The “Clobs, Mean” value ([1]; Plasma (25 mg/kg, PO)) was 2.320 mL/min/kg, the “Vzobs, Mean” value ([1]; Plasma (25 mg/kg, PO)) was 0.617 L/kg and the activity (SREBP) was 4.6%. For the same molecule, the “Tumor cross-sectional area/brain cross-sectional ratio, Average” value [2] was 0.02186 and the “Tumor cross-sectional area/brain cross-sectional ratio, individual” value [2] was 0.04373 and 0.
